Our source for the Ki and percent relative binding activity vs dexamethasone values is patent US8222247B2, “Modulators of glucocorticoid receptor, AP-1, and/or NF-kappabeta activity and use thereof” (Bristol-Myers Squibb Company, priority 2006, dated 2012).

The target in assay [1] is T1, human glucocorticoid receptor (Homo sapiens, UniProt P04150).
T1 construct: purified human recombinant full-length glucocorticoid receptor (2 nM); purchased Invitrogen Part #2893
T1 sequence (P04150 1-777): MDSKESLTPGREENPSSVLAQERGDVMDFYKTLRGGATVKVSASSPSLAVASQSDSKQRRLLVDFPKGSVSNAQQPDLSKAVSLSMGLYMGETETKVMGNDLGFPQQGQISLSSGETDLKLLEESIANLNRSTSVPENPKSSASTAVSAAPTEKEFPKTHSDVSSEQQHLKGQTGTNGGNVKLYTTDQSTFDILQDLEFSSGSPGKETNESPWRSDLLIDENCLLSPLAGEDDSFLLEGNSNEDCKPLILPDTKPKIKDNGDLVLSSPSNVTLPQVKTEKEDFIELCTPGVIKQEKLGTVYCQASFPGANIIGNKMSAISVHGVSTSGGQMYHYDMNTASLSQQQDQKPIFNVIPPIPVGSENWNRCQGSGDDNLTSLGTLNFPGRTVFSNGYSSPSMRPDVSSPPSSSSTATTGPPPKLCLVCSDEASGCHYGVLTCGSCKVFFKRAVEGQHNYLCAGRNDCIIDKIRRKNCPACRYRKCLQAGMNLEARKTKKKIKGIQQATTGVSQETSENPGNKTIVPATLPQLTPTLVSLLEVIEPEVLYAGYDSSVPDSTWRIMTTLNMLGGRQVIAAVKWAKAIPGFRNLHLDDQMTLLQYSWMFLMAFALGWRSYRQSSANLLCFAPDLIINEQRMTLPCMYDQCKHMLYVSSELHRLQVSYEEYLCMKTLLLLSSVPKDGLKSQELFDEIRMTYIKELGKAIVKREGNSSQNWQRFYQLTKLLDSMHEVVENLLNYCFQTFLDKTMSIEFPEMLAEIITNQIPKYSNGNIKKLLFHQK
The assay can be described thus: Glucocorticoid Receptor Binding Assay (I), fluorescence polarization competitor kit. Conditions: purified human recombinant full-length GR, Fluormone GS Red. The method, boiled down:
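Fluorescence polarization competition of purified recombinant full-length human GR (2 nM) with 1 nM Fluormone GS Red, incubated 2 h at room temperature in the dark. Normalized to vehicle (0%) and 5 μM dexamethasone (100%) as % relative binding activity. Compounds tested 8.5E-05 to 5 μM.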
Background: Polarisation of emitted light reports the rotation of a fluorescent probe.

The target of assay [2] is T2, human full-length glucocorticoid receptor (Homo sapiens, UniProt P04150).
T2 construct: recombinantly expressed human full-length glucocorticoid receptor; purchased PanVera Co., Madison, Wis; P2816
T2 sequence (P04150 1-777): T1 sequence (P04150 1-777)
The assay can be described thus: Glucocorticoid Receptor Binding Assay (II), fluorescence polarization competitor kit. Conditions: 1 h, % Relative Binding Affinity to dexamethasone, read-out: GR (% RBA* @ 10 μM) (GR Binding Assay (II)b). The procedure:
Glucocorticoid Receptor Binding Assay (II)^b
In order to measure the binding of compounds on the glucocorticoid receptor a commercially available kit was used (Glucocorticoid receptor competitor assay kit, PanVera Co., Madison, Wis., P2816). Briefly, a cell lysate containing recombinantly expressed human full-length glucocorticoid receptor was mixed with a fluorescently labeled glucocorticoid (1 nM Fluormone GS1) in the presence or absence of test compound. After one hour at room temperature, the fluorescence polarization (FP) of the samples were measured. The FP of a mixture of receptor, fluorescent probe (i.e. Fluormone GS1) and 1 mM dexamethasone represented background fluorescence or 100% inhibition, whereas, the FP of the mixture without dexamethasone was taken to be 100% binding. The percentage inhibition of test molecules were then compared to the sample with 1 mM dexamethasone and expressed as % relative binding activity with dexamethasone being 100% and no inhibition is 0%. Test molecules were analyzed in the concentration range from 2.4 nM to 40 microMolar.

One may read the Ki as the equilibrium dissociation constant of an inhibitor or competing ligand from its target. As for `CC(C)(C(=O)Nc1nncs1)C(c1cccc(F)c1)c1ccc(N2CCOCC2)s1` (centres unmarked) [Example 9, 3-(3-fluorophenyl)-2,2-dimethyl-3-(5-(4-morpholinyl)-2-thienyl)-N-1,3,4-thiadiazol-2-ylpropanamide], the Ki in assay [1] is 24.6 nM. Further, the percent relative binding activity vs dexamethasone at 10 µM in assay [2] was determined as 49.7%.
